Data reported in paper PMC10286718, “Amino Acid Starvation-Induced Glutamine Accumulation Enhances Pneumococcal Survival” (mSphere, 2023).

How the values were obtained:
SPD1098 SBD1 (GlnP) = target: T1, SPD1098 SBD1 (GlnP) (Streptococcus pneumoniae, UniProt A0A0H2ZPN9); experiment: isothermal titration calorimetry; format: binding
T1 construct: gene SPD_1098
T1 sequence (A0A0H2ZPN9 24-247): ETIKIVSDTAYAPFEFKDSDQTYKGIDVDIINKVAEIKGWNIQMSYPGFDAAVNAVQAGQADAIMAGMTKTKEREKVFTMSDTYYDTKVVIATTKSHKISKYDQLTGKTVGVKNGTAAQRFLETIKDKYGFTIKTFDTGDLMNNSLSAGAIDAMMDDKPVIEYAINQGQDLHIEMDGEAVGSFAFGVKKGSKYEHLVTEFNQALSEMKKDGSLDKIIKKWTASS
Description: isothermal titration calorimetry on SPD1098 SBD1 (GlnP)

SPD1098 SBD2 (GlnP) = target: T2, SPD1098 SBD2 (GlnP) (Streptococcus pneumoniae, UniProt A0A0H2ZPN9); experiment: isothermal titration calorimetry; format: binding
T2 construct: gene SPD_1098
T2 sequence (A0A0H2ZPN9 262-488): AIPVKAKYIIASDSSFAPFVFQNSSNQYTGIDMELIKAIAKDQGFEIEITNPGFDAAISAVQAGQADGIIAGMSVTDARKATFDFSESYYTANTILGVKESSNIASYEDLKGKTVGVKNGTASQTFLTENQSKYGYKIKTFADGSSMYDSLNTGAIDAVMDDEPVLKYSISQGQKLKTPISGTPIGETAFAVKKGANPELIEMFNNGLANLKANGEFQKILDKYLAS
Description: isothermal titration calorimetry on SPD1098 SBD2 (GlnP)

Compound | Kd (SPD1098 SBD1 (GlnP)) | Kd (SPD1098 SBD2 (GlnP))
NC(=O)C[C@H](N)C(=O)O [asparagine] | 1090 nM | 
NC(=O)CC[C@H](N)C(=O)O [glutamine] |  | 890 nM
